Results: patent US10188634B2, “3-(3H-imidazo[4,5-C]pyridin-2-yl)-1 H-pyrazolo[4,3-B]pyridines and therapeutic uses thereof” (Samumed, LLC, priority 2015, dated 2019)

How the values were obtained:
Assay type in all cases: cell-based
[1] = test system: LL29 cells (primary human fibroblasts derived from IPF patients) treated with TGF-β1, α-smooth muscle actin; assay: Inhibition of the fibrotic process: αSMA staining in TGF-β1 treated primary human fibroblasts from IPF patients (LL29 cells); conditions: Fibroblast, 96 h; for EC50: LL29 cells treated with TGF-β1 (20 ng/mL), 4 days; for inhibition at 10 µM: LL29 cells treated with TGF-β1, 4 days, read-out: percent inhibition in brackets (given for EC50 >10 μM)
[2] = test system: Wnt activity (Sp5-Luc reporter, human Sp5 promoter with eight TCF/LEF binding sites) in SW480 colon carcinoma cells; assay: Screening assay for Wnt activity: Sp5-Luc reporter gene assay in SW480 cells; conditions: 10-point dose-response starting from 10 μM, overnight incubation
In short: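 SW480 cells stably carrying Sp5-Luc reporter (eight TCF/LEF sites) plated at 4,000/well in 1% FBS medium with compound (10-point 1:3 series from 10 μM, 0.1% DMSO) overnight at 37 °C. BrightGlo luminescence normalized to DMSO; EC50 by four-parameter fit, else % inhibition at 10 μM.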

SW480 colon cancer cells = assay: Cell viability assay (CellTiter-Blue) in SW480 colon cancer cells; conditions: Homo sapiens, 96 h; for EC50: four days incubation, CellTiter-Blue cell viability; for inhibition at 10 µM: four days, CellTiter-Blue, read-out: percent inhibition at 10 μM (given for EC50 of >10 μM)
In short: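 About 2×10^3 SW480 colon cancer cells per well were exposed to compound (8-point 1:3 dilutions, 10 μM to 0.004 μM) for four days at 37 °C. Viability was read by CellTiter-Blue resazurin reduction (~3 h, Ex 560/Em 590). EC50 from nonlinear regression; above 10 μM, % inhibition at 10 μM is reported.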

Compound | EC50 [1] [µM] | EC50 [2] [µM] | EC50 (SW480 colon cancer cells) [µM] | inhibition at 10 µM [1] [%] | inhibition at 10 µM (SW480 colon cancer cells) [%]
CCCC(=O)Nc1cncc(-c2ccc3[nH]nc(-c4nc5c(-c6ccsc6)cncc5[nH]4)c3n2)c1 [Compound 269, N-(5-(3-(7-(Thiophen-3-yl)-3H-imidazo[4,5-c]pyridin-2-yl)-1H-pyrazolo[4,3-b]pyridin-5-yl)pyridin-3-yl)butyramide] | 7.23 | 3.72 | 3.44 |  | 
FC1(F)CCN(Cc2cncc(-c3ccc4[nH]nc(-c5nc6c(-c7ccsc7)cncc6[nH]5)c4n3)c2)C1 [Compound 278, 5-(5-((3,3-difluoropyrrolidin-1-yl)methyl)pyridin-3-yl)-3-(7-(thiophen-3-yl)-3H-imidazo[4,5-c]pyridin-2-yl)-1H-pyrazolo[4,3-b]pyridine] | 1.7 | 1.03 | 1.02 |  | 
CC(C)Nc1cncc(-c2ccc3[nH]nc(-c4nc5c(-c6ccoc6)cncc5[nH]4)c3n2)c1 [Compound 292, 5-(3-(7-(Furan-3-yl)-3H-imidazo[4,5-c]pyridin-2-yl)-1H-pyrazolo[4,3-b]pyridin-5-yl)-N-isopropylpyridin-3-amine] | 1.15 | 0.597 | 0.646 |  | 
c1cc(-c2cncc3[nH]c(-c4n[nH]c5ccc(-c6cncc(CNCC7CCCC7)c6)nc45)nc23)co1 [Compound 305, 1-Cyclopentyl-N-((5-(3-(7-(furan-3-yl)-3H-imidazo[4,5-c]pyridin-2-yl)-1H-pyrazolo[4,3-b]pyridin-5-yl)pyridin-3-yl)methyl)methanamine] | > 10 | 8.61 | 4.61 | 0 | 
CN(C)c1cncc(-c2ccc3[nH]nc(-c4nc5c(-c6cccs6)cncc5[nH]4)c3n2)c1 [Compound 315, N,N-Dimethyl-5-(3-(7-(thiophen-2-yl)-3H-imidazo[4,5-c]pyridin-2-yl)-1H-pyrazolo[4,3-b]pyridin-5-yl)pyridin-3-amine] | > 10 | 0.71 | > 10 | 34.3 | 43.8
Cc1ccc(-c2cncc3[nH]c(-c4n[nH]c5ccc(-c6cncc(N)c6)nc45)nc23)s1 [Compound 367, 5-(3-(7-(5-Methylthiophen-2-yl)-3H-imidazo[4,5-c]pyridin-2-yl)-1H-pyrazolo[4,3-b]pyridin-5-yl)pyridin-3-amine] | 0.815 | 0.041 | 0.097 |  | 
CC(C)Nc1cncc(-c2ccc3[nH]nc(-c4nc5c(-c6cc(F)cc(NCCN(C)C)c6)cncc5[nH]4)c3n2)c1 [Compound 432, N^1-(3-Fluoro-5-(2-(5-(5-(isopropylamino)pyridin-3-yl)-1H-pyrazolo[4,3-b]pyridin-3-yl)-3H-imidazo[4,5-c]pyridin-7-yl)phenyl)-N^2,N^2-dimethylethane-1,2-diamine] | 6.41 | 1.66 | 5.36 |  | 
Cc1ccncc1-c1ccc2[nH]nc(-c3nc4c(-c5cc(F)cc(CNS(C)(=O)=O)c5)cncc4[nH]3)c2n1 [Compound 453, N-(3-Fluoro-5-(2-(5-(4-methylpyridin-3-yl)-1H-pyrazolo[4,3-b]pyridin-3-yl)-3H-imidazo[4,5-c]pyridin-7-yl)benzyl)methanesulfonamide] | > 10 | 3.21 | > 10 | 0 | 37.3
CN(C)CCOc1cncc(-c2ccc3[nH]nc(-c4nc5c(-c6cccc(F)c6)cncc5[nH]4)c3n2)c1 [Compound 487, 2-((5-(3-(7-(3-Fluorophenyl)-3H-imidazo[4,5-c]pyridin-2-yl)-1H-pyrazolo[4,3-b]pyridin-5-yl)pyridin-3-yl)oxy)-N,N-dimethylethan-1-amine] | > 10 | 3.44 | 5.54 | 30.7 | 
COc1cncc(-c2ccc3[nH]nc(-c4nc5c(-c6cccc(F)c6)cncc5[nH]4)c3n2)c1 [Compound 488, 3-(7-(3-Fluorophenyl)-3H-imidazo[4,5-c]pyridin-2-yl)-5-(5-methoxylpyridin-3-yl)-1H-pyrazolo[4,3-b]pyridine] | > 10 | 0.024 | > 10 | 0 | 0
